Laboratory results reported in US6395749B1, “Carboxamide compounds, methods, and compositions for inhibiting PARP activity” (Guilford Pharmaceuticals Inc., priority 1998, dated 2002).

Tested on: C57/BL male mice
Assay: Septic shock assay (LPS plus galactosamine challenge)
Type: in vivo, mouse
Conditions: 60, 20, 6 and 2 mg/kg daily IP for three days, first dose 30 minutes after challenge; dose of the result not stated
Procedure: Groups of 10 C57/BL male mice weighing 18 to 20 g were administered a test compound, 1-carboxynaphthalene-1-carboxamide at the doses of 60, 20, 6 and 2 mg/kg, daily, by intraperitoneal (IP) injection for three consecutive days. Each animal was first challenged with lipopolysaccharide (LPS, from E. Coli, LD100 of 20 mg/animal IV) plus galactosamine (20 mg/animal IV). The first dose of test compound in a suitable vehicle was given 30 minutes after challenge, and the second and third doses were given 24 hours later on day 2 and day 3 respectively, with only the surviving animals receiving the second or third dose of the test compound. Mortality was recorded every 12 hours after challenge for the three-day testing period. 1-Carboxy-naphthalene-1-carboxamide provided a protection against mortality from septic shock of about 40%.

**Q.** Which “protection against mortality from septic shock” value does the source give for `NC(=O)c1cccc2cccc(C(=O)O)c12` [1-Carboxy-naphthalene-1-carboxamide, 8-carboxynaphthalene-1-carboxamide] here?
**A.** The value was “about 40%”.
